Several values for one entry are separate records, joined by “and”; a condition that tells them apart may be missing. Equal values may be shown once.
Target: T1, Muscarinic acetylcholine receptor M4 (Homo sapiens, UniProt P08173)
T1 sequence (P08173 whole entry): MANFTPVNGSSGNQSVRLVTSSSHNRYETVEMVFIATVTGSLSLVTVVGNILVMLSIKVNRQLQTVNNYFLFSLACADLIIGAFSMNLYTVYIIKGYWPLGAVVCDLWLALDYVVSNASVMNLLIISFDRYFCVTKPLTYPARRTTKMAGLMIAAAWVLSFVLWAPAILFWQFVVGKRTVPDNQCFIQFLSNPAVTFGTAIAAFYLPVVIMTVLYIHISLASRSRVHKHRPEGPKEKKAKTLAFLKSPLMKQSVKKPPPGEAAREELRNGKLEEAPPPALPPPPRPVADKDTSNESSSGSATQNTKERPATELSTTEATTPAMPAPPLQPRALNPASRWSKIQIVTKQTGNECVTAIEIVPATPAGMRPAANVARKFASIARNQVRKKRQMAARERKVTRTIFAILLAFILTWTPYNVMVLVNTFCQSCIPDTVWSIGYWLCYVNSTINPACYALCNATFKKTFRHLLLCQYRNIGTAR

Row | SMILES | Ki
1 | O[Si](CCCN1CCCCC1)(c1ccccc1)C1CCCCC1 (configuration not stated) [HHSiD] | 4.16 nM and 16.6 nM
2 | COc1ccccc1CNCCCCCCNCCCCCCCCNCCCCCCNCc1ccccc1OC [METHOCTRAMINE] | 66.1 nM and 72.4 nM

From BindingDB's records for doi:10.1111/j.1600-0773.1998.tb01469.x (Case Western Reserve University, 1998)
